Data taken from ChEMBL document CHEMBL4765432, “Design and synthesis of novel Flavone-based histone deacetylase inhibitors antagonizing activation of STAT3 in breast cancer” (Eur J Med Chem, 2020).
pIC50: −log10 of the molar value.

Legend:
[1] = biological target: Histone deacetylase 5 (Homo sapiens, UniProt Q9UQL6); test: Inhibition of recombinant human N-terminal GST-tagged HDAC-5 (617 to end residues) expressed in baculovirus infected in Sf9 cells at 10 uM using Boc-Lys (q-Ac)-AMC as substrate incubated for 10 mins followed by substrate addition and measured after 30 mins by fluorescence based assay relative to control; conditions: time 40.0 min
[2] = tested on: MDA-MB-231; test: Induction of cell cycle arrest in human MDA-MB-231 cells assessed as S phase accumulation at 1 uM incubated for 24 hrs by PI staining based flow cytometry analysis (reference value: 43.82 %); format: functional
[3] = tested on: MDA-MB-231; test: Induction of apoptosis in human MDA-MB-231 cells assessed as late apoptotic cells at 1 uM incubated for 72 hrs by annexinV-FITC and PI staining based flow cytometry analysis (reference value: 3.79 %); format: functional
[4] = tested on: 4T1; test: Induction of apoptosis in mouse 4T1 cells assessed as late apoptotic cells at 5 uM incubated for 72 hrs by annexinV-FITC and PI staining based flow cytometry analysis (reference value: 2.24 %); format: functional
[5] = tested on: MDA-MB-231; test: Induction of apoptosis in human MDA-MB-231 cells assessed as early apoptotic cells at 1 uM incubated for 72 hrs by annexinV-FITC and PI staining based flow cytometry analysis (reference value: 5.57 %); format: functional
[6] = tested on: MDA-MB-231; test: Induction of cell cycle arrest in human MDA-MB-231 cells assessed as S phase accumulation at 2 uM incubated for 24 hrs by PI staining based flow cytometry analysis (reference value: 43.82 %); format: functional
[7] = tested on: 4T1; test: Induction of cell cycle arrest in mouse 4T1 cells assessed as S phase accumulation at 1 uM incubated for 24 hrs by PI staining based flow cytometry analysis (reference value: 19.43 %); format: functional
[8] = tested on: MDA-MB-231; test: Induction of cell cycle arrest in human MDA-MB-231 cells assessed as increase in G0/G1 phase accumulation incubated for 24 hrs by flow cytometry analysis; format: functional, cell-based; conditions: dose 1-2 µM
[9] = biological target: Histone deacetylase 9 (Homo sapiens, UniProt Q9UKV0); test: Inhibition of recombinant human N-terminal GST-tagged HDAC-9 (548 to end residues) expressed in baculovirus infected in Sf9 cells using Boc-Lys (q-Ac)-AMC as substrate incubated for 10 mins followed by substrate addition and measured after 30 mins by fluorescence based assay
[10] = tested on: 4T1; test: Induction of apoptosis in mouse 4T1 cells assessed as early apoptotic cells at 2.5 uM incubated for 72 hrs by annexinV-FITC and PI staining based flow cytometry analysis (reference value: 1.65 %); format: functional
[11] = tested on: 4T1; test: Induction of cell cycle arrest in mouse 4T1 cells assessed as G2/M phase accumulation at 2 uM incubated for 24 hrs by PI staining based flow cytometry analysis (reference value: 38.51 %); format: functional

Histone deacetylase 5, sequence (Q9UQL6 whole entry): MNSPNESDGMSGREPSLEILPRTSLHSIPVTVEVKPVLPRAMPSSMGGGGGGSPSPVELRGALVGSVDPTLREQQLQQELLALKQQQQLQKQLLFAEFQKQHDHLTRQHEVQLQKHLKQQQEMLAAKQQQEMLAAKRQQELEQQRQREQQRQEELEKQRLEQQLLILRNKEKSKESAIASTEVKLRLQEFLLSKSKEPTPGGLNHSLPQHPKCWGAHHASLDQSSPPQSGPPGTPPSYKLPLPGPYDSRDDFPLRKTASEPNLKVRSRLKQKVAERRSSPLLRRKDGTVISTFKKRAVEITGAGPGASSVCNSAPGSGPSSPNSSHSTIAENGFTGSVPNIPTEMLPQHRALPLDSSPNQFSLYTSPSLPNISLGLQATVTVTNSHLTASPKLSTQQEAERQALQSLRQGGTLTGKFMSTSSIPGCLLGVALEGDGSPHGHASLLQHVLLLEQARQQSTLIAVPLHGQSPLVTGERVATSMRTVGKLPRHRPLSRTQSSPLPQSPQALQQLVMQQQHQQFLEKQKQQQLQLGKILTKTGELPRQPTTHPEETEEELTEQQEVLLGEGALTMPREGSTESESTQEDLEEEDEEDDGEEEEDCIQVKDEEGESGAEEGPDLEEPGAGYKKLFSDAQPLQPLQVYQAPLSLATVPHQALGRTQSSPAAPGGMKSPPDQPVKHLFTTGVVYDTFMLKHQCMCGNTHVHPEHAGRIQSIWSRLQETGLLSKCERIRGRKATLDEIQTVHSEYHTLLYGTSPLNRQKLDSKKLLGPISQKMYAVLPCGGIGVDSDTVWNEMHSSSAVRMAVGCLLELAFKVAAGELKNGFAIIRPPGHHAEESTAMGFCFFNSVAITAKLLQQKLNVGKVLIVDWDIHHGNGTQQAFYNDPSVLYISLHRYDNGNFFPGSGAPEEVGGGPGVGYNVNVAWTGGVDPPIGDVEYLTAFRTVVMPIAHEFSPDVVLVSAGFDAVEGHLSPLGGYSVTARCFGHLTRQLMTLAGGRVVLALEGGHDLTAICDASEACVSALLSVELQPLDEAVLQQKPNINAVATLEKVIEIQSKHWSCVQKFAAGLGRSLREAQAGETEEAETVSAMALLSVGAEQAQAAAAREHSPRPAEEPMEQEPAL
Histone deacetylase 9, sequence (Q9UKV0 whole entry): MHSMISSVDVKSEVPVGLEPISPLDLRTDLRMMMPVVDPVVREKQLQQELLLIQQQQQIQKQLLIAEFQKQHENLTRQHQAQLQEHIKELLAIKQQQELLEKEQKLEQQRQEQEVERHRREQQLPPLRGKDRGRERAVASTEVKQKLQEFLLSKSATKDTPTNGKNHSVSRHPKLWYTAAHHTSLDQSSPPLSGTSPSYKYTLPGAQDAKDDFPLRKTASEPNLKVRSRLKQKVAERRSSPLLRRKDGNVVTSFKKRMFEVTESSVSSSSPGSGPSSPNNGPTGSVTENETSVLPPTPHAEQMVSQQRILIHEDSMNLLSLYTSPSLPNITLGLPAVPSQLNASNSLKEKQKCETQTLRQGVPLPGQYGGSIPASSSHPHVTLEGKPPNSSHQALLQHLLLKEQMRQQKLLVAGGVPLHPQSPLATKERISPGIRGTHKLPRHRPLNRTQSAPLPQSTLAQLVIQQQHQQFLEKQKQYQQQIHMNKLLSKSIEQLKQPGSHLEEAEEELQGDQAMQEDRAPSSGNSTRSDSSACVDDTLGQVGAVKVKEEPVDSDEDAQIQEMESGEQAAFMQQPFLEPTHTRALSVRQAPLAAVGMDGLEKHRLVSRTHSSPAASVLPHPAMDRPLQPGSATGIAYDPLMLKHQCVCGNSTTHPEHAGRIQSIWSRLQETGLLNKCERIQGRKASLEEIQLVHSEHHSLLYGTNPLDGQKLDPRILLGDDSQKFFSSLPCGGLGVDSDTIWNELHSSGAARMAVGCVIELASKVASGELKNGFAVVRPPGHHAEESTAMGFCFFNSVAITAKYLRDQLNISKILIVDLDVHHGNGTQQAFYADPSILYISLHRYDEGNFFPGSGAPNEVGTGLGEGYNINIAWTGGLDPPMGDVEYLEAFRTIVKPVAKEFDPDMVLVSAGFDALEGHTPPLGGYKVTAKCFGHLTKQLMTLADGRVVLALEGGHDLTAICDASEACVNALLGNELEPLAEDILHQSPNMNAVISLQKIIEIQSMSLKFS

CN(C)CCOc1ccc(-c2cc(=O)c3c(O)cc(OCCCCCC(=O)NO)cc3o2)cc1.Cl
inhibition [1]: 38% | Activity [2]: 8.09% | Activity [3]: 12% | Activity [4]: 21.9% | Activity [5]: 23.1% | Activity [6]: 10.21% | Activity [7]: 30.99% | Activity [8]: Dose-dependent effect | pIC50 [9]: < 5.00 | Activity [10]: 31.4% | Activity [11]: 11.51%
